# Results: patent US10201583B2, “Antioxidant dietary supplement and related method” (priority 2012, dated 2019)
# Experiments:
# [1] = test system: HMOX-1 in bovine aortic endothelial cells; settings: Motterlini et al. 2000; cited from earlier work
# [2] = test system: Antioxidant Response Element (ARE); assay: ARE luciferase reporter assay in stably transfected HepG2 cells; type: cell-based, human; settings: individual ingredient at the noted concentration, 48 h, control sulforaphane 10 μM
# Description: The formulation including the blend of turmeric, quercetin and rosemary (TQR Blend, also referred to herein as Blend A) was tested to evaluate the ARE of the blend. In particular, the three individual ingredients, turmeric, quercetin and rosemary were tested by themselves and in combination as a blend. In the testing, a conventional assay for determining ARE was utilized. Generally, the assay included the human hepatocyte cell line HepG2 obtained from ATCC of Manassas, Va. that was stably transfected with a vector. The vector contained four repeats of the ARE DNA sequence ([…] ID NO: 1)) upstream of a minimal promoter using the firefly luciferase gene as a reporter. These cells were then treated with the individual ingredients turmeric, quercetin and rosemary, and the TQR Blend in varying concentrations for 48 hours in this and the other noted examples below. The human hepatocytes were lysed, the luciferase substrate, purchased from Biotium of Hayward, Calif., added, and the relative luminescence values were obtained for all samples. The results are shown as a % Response vs. Control. The control substance was sulforaphane at 10 μM.
SMILES,induction of HMOX-1 in endothelial cells [1],% Response vs. Control in ARE assay ([2]; TQR Blend 50 μg/ml at 1:3:5),% Response vs. Control in ARE assay ([2]; TQR Blend 60 μg/ml at 1:3:5),% Response vs. Control in ARE assay ([2]; TQR Blend 70 μg/ml at 1:3:5),% Response vs. Control in ARE assay ([2]; TQR Blend 80 μg/ml at 1:3:5)
COc1cc(/C=C/C(=O)CC(=O)/C=C/c2ccc(O)c(OC)c2)ccc1O [curcumin],potent inducer of HMOX-1,,,,
O=c1c(O)c(-c2ccc(O)c(O)c2)oc2cc(O)cc(O)c12 [quercetin],,about 50%,about 75%,about 80%,about 90%
